For two molecules, Ki results are on record in doi:10.1101/2022.07.25.501471v5 (biorxiv, 2023).

For one experiment, the target named is T1, CreTPT2 (His-CreTPT2) (Chlamydomonas reinhardtii, UniProt A0A2K3DMX1).
T1 sequence (A0A2K3DMX1 71-401): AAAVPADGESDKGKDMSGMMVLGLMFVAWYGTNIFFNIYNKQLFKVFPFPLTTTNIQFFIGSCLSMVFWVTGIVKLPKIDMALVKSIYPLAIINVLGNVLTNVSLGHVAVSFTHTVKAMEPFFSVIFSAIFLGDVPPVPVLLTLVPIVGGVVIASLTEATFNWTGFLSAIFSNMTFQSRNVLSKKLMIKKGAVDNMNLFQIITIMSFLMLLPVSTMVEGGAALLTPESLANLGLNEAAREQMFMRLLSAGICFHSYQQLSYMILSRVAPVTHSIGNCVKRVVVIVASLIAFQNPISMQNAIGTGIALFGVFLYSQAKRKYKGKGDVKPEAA
The experiment in a line: inhibition of […]Pi uptake into proteoliposomes. Format: cell-based. Conditions: competitive; 0.25 mM external Pi, 30 mM Pi inside, competitor 0.05-5 mM, 4 min.

The target of the next experiment is T2, CreTPT3 (His-CreTPT3) (Chlamydomonas reinhardtii, UniProt A8HN02).
T2 sequence (A8HN02 61-406): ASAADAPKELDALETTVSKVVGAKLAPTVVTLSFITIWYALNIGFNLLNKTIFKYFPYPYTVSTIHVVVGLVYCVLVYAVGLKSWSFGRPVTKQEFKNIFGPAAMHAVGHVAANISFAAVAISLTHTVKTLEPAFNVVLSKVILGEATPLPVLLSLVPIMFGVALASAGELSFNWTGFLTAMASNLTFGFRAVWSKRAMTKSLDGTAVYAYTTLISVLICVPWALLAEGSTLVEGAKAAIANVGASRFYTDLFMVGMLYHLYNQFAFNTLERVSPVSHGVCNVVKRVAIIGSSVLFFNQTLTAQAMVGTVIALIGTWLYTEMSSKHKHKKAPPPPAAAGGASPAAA
The experiment in a line: inhibition of […]Pi uptake into proteoliposomes. It counts as cell-based. The note with it: competitive; 0.25 mM external Pi, 30 mM Pi inside, competitor 0.05-5 mM, 4 min.

SMILES strings stand for the structures.

Consider `O=C(O)[C@H](O)COP(=O)(O)O` [3-PGA], for which the Ki (in general, the equilibrium dissociation constant of an inhibitor or competing ligand from its target) at CreTPT2 (His-CreTPT2) is 780 ± 190 µM; on CreTPT3 (His-CreTPT3), 790 ± 122 µM.
On to `O=C(CO)COP(=O)(O)O` [DHAP], for which the Ki at CreTPT2 (His-CreTPT2) worked out at 710 ± 120 µM; on CreTPT3 (His-CreTPT3), 570 ± 13 µM.
